From US10894808B2, “Polypeptide ligands specific for plasma kallikrein” (BicycleRD Limited, priority 2013, dated 2021) come the findings set out here.

The target in one data set is T1, rat plasma kallikrein (Rattus norvegicus, UniProt P14272).
T1 construct: polyhistidine tag followed by proTEV cleavage site (pro-peptide) (N, cleaved yes); made in house; host or cells: HEK-293 (suspension-adapted), pEXPR-IBA42 vector
Kind of data set: Functional enzyme assay, inhibition of rat plasma kallikrein (Z-PheArg-AMC substrate). In kind it is biochemical. The settings on record: Table 1, synthetic peptides; read-out: Rat (Ki). How it is done: (§1) Functional enzyme assays were conducted in 10 mM Tris HCl, 150 mM NaCl, 10 mM MgCl2, 1 mM CaCl2 and 1 mg/mL BSA (all Sigma UK) pH 7.4 at 25° C. in solid black 96 or 384 well plates. […] Release of AMC was measured using a Pherastar FS (BMG Labtech), excitation 360 nm, emission 460 nm. The rate of the linear phase of the reaction, typically 5 to 45 minutes, was calculated in MARS data analysis software (BMG labtech). The rate was then used to calculate the IC50 and Ki in Prism (GraphPad). A four parameter inhibition non-linear regression equation was used to calculate the IC50. […]
(§2) Peptides were dissolved as the TFA-salts in their powder form, and stock solutions were usually prepared in water. All solutions were centrifuged and filtered ([…] syringe filters) prior to absorption measurement at 280 nm. Extinction coefficients were calculated based on the Trp/Tyr content of the peptide, and that of TMB (the TMB core, when contained in a peptide, has an extinction coefficient of ˜300 M^−1 cm^−1).

Data set [1] can be described thus: Plasma stability profiling Method #1 (35% plasma, MALDI-TOF window of detection). The settings on record: Method #1, 35% rat or human plasma, 37° C., qualitative. In kind it is in vitro ADME. How it is done: A rapid plasma stability profiling assay was developed that employed mass spectrometric detection (MALDI-TOF, Voyager DE, Applied Biosystems) of the parent mass, until the time when the parent peptide mass was no longer observable. Specifically, 200 μM of peptide was incubated in the presence of 35% rat or human plasma (Sera labs, using citrate as anticoagulant) at 37° C., which was supplemented with 1×PBS (derived from a 10×PBS Stock, Sigma). At various time points (i.e. t=0, 3, 24 hrs, henceafter daily up to 10 days), 2 μL of sample was added to 18 μL of 30 mM ammonium bicarbonate in a 1:1 mixture of acetonitrile:H2O. Samples were frozen at −80° C. until the time of analysis. For mass spectrometric analysis that determines the approximate detection window of the peptide, the acetonitrile:H2O-diluted sample of a given time point was spotted directly (0.7 μL) onto the MALDI plate. Matrix (alpha-cyanocinnamic acid, Sigma, prepared as a saturated solution in 1:1 acetonitrile:water containing 0.1% trifluoroacetic acid) was layered over the sample (1 μL). At a similar laser intensity setting on the MALDI TOF, the time could then be determined until parent peptide was no longer detectable. It should be noted that this is a qualitative assay serves to detect relative changes in plasma stability.

A further data set concerns the target rabbit kallikrein (Oryctolagus cuniculus, UniProt G1T127). Briefly: Functional enzyme assay, inhibition of rabbit kallikrein. The format is biochemical. How it is done:
as §1, §2

For another data set, the target named is T2, human plasma kallikrein (Homo sapiens, UniProt P03952).
T2 construct: purchased Stratech, UK
Briefly: Functional enzyme assay, inhibition of human plasma kallikrein (Z-PheArg-AMC substrate). The format is biochemical. As to conditions: Table 1, synthetic peptides; read-out: Human (Ki). How it is done: as §1, §2

Data set [2] in a line: Aqueous solubility (qualitative). The format is physicochemical. As to conditions: in words.
The nature of data set [3]: Intravenous pharmacokinetics in rat. The format is in vivo. How it is done: Peptides used for the pharmacokinetic studies in Example 4 were lyophilised from 10 mM HCl in water 3 times to afford the hydrochloride salts of the compounds. Solutions were dosed by intravenous bolus at 1 mg/mL in 50 mM Hepes pH 7.0, 5% glycerol, 1.9% DMSO for two compounds (Ac-(06-550) Aze3 HArg5 Sar3-(D-Arg2)) and (06-259-02)-Sar3-(D-Arg2)) at 5 mg/kg in Spraguely Dawely rats. Serial blood samples (˜0.2 mL) were taken into EDTA tubes at the indicated time points, and plasma was separated by centrifugation, and frozen at −20 C for analysis. Employing standard bioanalytical techniques, plasma samples were then analysed and quantified for parent remaining compound using a Waters, Xevo TQS LC-MS. PK parameters were determined using the software package PK Solutions 2.0 from Summit Research Services.
Peptides Ac-(06-550)-Sar3-(D-Arg)2Aze3 HArg5 (which contains the stabilising and affinity enhancing modifications Aze3 and HArg5, and a solubilising C-terminal extension Sar3-(D-Arg)2) (SEQ ID NO: 98) and Ac-(06-259-02)-Sar3-(D-Arg)2 were selected for pharmacokinetic assessment in rat. Peptides were injected intravenously in buffered solution at 1 mg/mL at 5 mg/kg Sprague Dawley rats, and blood was sampled and analysed for peptide concentrations at a number of time points post injection.

Data set [4] concerns carrageenan-induced paw oedema. Kind of data set: Carrageenan-induced paw oedema in rat. In kind it is in vivo. As to conditions: peptides 15 mg/kg ip, indomethacin 5 mg/kg ip, paw volume at 1, 2, 4, 6 h, p<0.001. How it is done: In this analysis, peptide Ac-(06-259-02)-Sar3-(D-Arg)2 (referred to in this study as Bicycle 3; see Example 2 herein) was assessed comparatively against the peptide Ac-(06-34-18) Phe2 Aze3 Tyr4 HArg5 Ala(ψCH2NH)6 (referred to in this study as Bicycle 2 and which is disclosed in Table 26b and FIG. 22 of PCT/EP2014/057440). Inflammation was induced in male Sprague-Dawley rats (n=10 per group) by injection of 100 μL of 1% carrageenan solution in the subplantar region of the right hind paw. Animals received treatment with the peptides and indomethacin according to Table 10:
At 1, 2, 4 and 6 hours after carrageenan administration, paw volume was measured by water displacement method. Statistical analysis was conducted using 2-way ANOVA with repeated measures (GraphPad Prism).
On the technique in general: The carrageenan paw model is a standard test of acute inflammation.

Read-outs that look alike come from different tables or passages of the source. *1 amine or outer side, *2 acyl side, *3 side chain or, on linkers, in order; H or OH if unused. Where a SMILES comes first, the peptide text is derived from it. Bridges are numbered along the chain shown (N, C = ends). [ ]: non-standard residue; d: D form. TBMB = c1c(C[*:1])cc(C[*:3])cc1C[*:2]; Sar = CNCC(=O)O

Broadly, the Ki is a dissociation constant, usually derived from enzyme kinetics or from competition with a known ligand. The clearance is the volume of plasma or blood freed of the substance per unit of time. A high value points to a high capacity for elimination.

rabbit kallikrein, sequence (G1T127 20-629): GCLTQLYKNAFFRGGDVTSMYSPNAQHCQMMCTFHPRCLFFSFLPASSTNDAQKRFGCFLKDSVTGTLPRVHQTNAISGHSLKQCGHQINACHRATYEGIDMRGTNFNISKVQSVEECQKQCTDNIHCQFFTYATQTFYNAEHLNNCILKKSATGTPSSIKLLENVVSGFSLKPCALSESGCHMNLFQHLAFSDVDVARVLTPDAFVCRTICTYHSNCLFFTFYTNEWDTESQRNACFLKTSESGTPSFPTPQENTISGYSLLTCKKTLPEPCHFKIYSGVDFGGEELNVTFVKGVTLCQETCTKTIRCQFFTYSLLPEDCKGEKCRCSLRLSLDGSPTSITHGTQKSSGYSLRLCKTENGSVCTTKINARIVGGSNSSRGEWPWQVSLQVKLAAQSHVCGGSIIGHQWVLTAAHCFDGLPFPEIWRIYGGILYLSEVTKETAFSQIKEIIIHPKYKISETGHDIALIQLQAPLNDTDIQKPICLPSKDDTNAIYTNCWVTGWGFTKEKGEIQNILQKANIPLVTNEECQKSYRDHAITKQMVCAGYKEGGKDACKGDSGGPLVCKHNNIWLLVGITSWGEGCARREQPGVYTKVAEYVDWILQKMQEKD
T1 sequence (P14272 391-638 limits assumed): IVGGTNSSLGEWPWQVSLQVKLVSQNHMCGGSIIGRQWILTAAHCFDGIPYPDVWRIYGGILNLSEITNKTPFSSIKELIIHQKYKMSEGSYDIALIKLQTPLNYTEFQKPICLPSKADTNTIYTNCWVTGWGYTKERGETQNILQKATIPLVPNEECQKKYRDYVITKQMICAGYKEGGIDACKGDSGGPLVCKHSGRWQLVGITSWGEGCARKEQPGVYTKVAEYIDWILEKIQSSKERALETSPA
T2 sequence (P03952 391-638 limits assumed): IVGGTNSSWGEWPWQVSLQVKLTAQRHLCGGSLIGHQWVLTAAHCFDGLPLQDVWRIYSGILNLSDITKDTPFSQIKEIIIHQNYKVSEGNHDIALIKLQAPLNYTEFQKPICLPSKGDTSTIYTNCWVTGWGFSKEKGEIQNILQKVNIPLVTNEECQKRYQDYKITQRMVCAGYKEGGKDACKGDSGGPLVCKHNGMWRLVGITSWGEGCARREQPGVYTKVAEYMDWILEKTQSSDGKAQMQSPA
T2 sequence (P03952 20-390 partner limits assumed): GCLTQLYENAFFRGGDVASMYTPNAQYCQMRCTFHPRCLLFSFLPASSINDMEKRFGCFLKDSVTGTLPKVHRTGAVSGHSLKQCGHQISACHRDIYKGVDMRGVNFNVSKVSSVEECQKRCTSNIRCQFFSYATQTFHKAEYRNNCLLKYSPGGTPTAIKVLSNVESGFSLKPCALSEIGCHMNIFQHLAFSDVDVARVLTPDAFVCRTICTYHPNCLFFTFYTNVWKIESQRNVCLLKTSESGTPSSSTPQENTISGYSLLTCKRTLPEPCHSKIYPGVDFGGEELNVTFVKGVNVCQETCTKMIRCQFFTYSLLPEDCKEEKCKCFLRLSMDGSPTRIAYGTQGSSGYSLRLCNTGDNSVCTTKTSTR

Consider `CC[C@H](C)[C@@H]1NC(=O)[C@H](CC(C)C)NC(=O)[C@H]([C@@H](C)O)NC(=O)[C@@H]2CSCc3cc(cc(c3)CSC[C@@H](C(=O)N[C@@H](C)C(N)=O)NC(=O)[C@H]([C@@H](C)O)NC(=O)[C@H]([C@@H](C)CC)NC(=O)[C@H](CC(N)=O)NC1=O)CSC[C@H](NC(=O)[C@H](C)N)C(=O)N[C@@H](CCCNC(=N)N)C(=O)N[C@@H](CC(N)=O)C(=O)N[C@@H](Cc1ccc(O)cc1)C(=O)N[C@@H](Cc1c[nH]c3ccccc13)C(=O)N[C@@H](CC(N)=O)C(=O)N1CCC[C@H]1C(=O)N2` [06-255] (H-ACRNYWNPCTLINITCA-NH2; linker 2-9-16 via TBMB; N-terminus and C-terminus assumed), for which the inhibition constant Ki was found to be 18.9 nM at rat plasma kallikrein; 342 nM at rabbit kallikrein (Table 1, synthetic peptides, read-out: Rabbit (Ki)); 342 nM on rabbit kallikrein (Table 5, read-out: Rabbit (Ki)); 3.4 nM on human plasma kallikrein. Besides, the “window of detection of parent peptide” value in data set [1] is reported as “up to 10 days”. For the same compound, the aqueous solubility entry in data set [2] is on record as “poor solubility profile”.

Take `CC[C@H](C)[C@@H]1NC(=O)[C@H](CC(=O)O)NC(=O)[C@@H]2CCCN2C(=O)[C@H](Cc2ccc(O)cc2)NC(=O)[C@H](Cc2ccc(O)cc2)NC(=O)[C@H](C(C)C)NC(=O)[C@@H]2CSCc3cc(cc(c3)CSC[C@H](N)C(=O)N[C@@H](CO)C(=O)N[C@@H](Cc3ccccc3)C(=O)N3CCC[C@H]3C(=O)N[C@@H](Cc3ccc(O)cc3)C(=O)N[C@@H](CCCNC(=N)N)C(=O)N2)CSC[C@@H](C(N)=O)NC1=O` [06-550] (H-CSFPYRCVYYPDIC-NH2; linker 1-7-14 via TBMB; N-terminus assumed): the clearance in data set [3] (in vivo, text b258, rat, iv 5 mg/kg) was found to be 17 mL/min/kg. Moreover, the aqueous solubility entry in data set [2] was “significantly reduced aqueous solubility”.

For `CC(=O)N[C@H]1CSCc2cc3cc(c2)CSC[C@H](NC(=O)[C@H](Cc2c[nH]c4ccccc24)NC(=O)[C@@H]2CCCN2C(=O)[C@H](CC(N)=O)NC(=O)[C@H](Cc2c[nH]c4ccccc24)NC(=O)[C@H]([C@@H](C)O)NC(=O)[C@H](CC(N)=O)NC1=O)C(=O)N1CCC[C@H]1C(=O)N[C@@H](Cc1c[nH]c2ccccc12)C(=O)N[C@@H](CC(=O)O)C(=O)N[C@@H](C)C(=O)N1CCC[C@H]1C(=O)N[C@@H](CC(C)C)C(=O)N[C@H](C(=O)N[C@@H](C)C(=O)N(C)CC(=O)N(C)CC(=O)N(C)CC(=O)N[C@H](CCCNC(=N)N)C(=O)N[C@H](CCCNC(=N)N)C(N)=O)CSC3` [Ac-(06-259-02)-Sar3-(DArg2)] (Ac-CNTWNPWCPWDAPLCA[Sar][Sar][Sar][dR][dR]-NH2; linker 1-8-15 via TBMB), in data set [3] (FIG. 4, rat, iv, in words), the “stability in the rat circulation” value is reported as “marked stability in the rat circulation”. The same compound showed a clearance in data set [3] (in vivo, Table 8, Sprague Dawley rat, iv 5 mg/kg) of 7.2 mL/min/kg. The Vd in data set [3] (in vivo, Table 8, Sprague Dawley rat, iv 5 mg/kg, read-out: Vss) came out at 0.8 L/kg. The half-life in data set [3] (in vivo, Table 8, Sprague Dawley rat, iv 5 mg/kg, read-out: t1/2 elimination) stood at 1.3 h. The compound also came in with a Ki on rabbit kallikrein of 1450 nM. For the same compound, the “effect on paw swelling induced by carrageenan” value in data set [4] is recorded as “inhibited the paw swelling induced by carrageenan at all timepoints”.

Consider `COc1ccc2c(c1)c(CC(=O)O)c(C)n2C(=O)c1ccc(Cl)cc1` [indomethacin, reference compound], for which the “effect on paw swelling induced by carrageenan” value in data set [4] is on record as “highly significant reduction in paw swelling”.
